Measurements as given in PMC7915902, “Preclinical Evaluation of [^18F]FACH in Healthy Mice and Piglets: An ^18F-Labeled Ligand for Imaging of Monocarboxylate Transporters with PET” (International Journal of Molecular Sciences, 2021).
Several values for one entry are separate records, joined by “and”; a condition that tells them apart may be missing. Equal entries are not always repeated.

Legend:
MCT4 = system: MCT4; parameters: method as in PMID 31017677; settings: L-[14C]lactate uptake, MDA-MB231 cells; read-out: IC50 towards MCT4; cited from earlier work
plasma protein [1] = assay: Plasma protein binding ex vivo (ultrafiltration); type: in vitro ADME; settings: mouse plasma, 70 min after i.v. injection
Protocol: (§1) To measure plasma protein binding in vitro, a 1 mL portion of piglet plasma was incubated with 4.9 MBq [^18F]FACH (10 µL) on a shaker (400 rpm) for 20 min at 37 °C. The plasma protein binding was also measured ex vivo in 10 µL portions of mouse plasma from retro-orbital blood samples collected 70 min after intravenous (i.v.) injection of 3.7 MBq [^18F]FACH via a tail vein. The free and bound fractions of [^18F]FACH were separated by centrifugation at room temperature (2000 g for ten minutes, Centrifree® YM-30, Ultrafiltration Device; Merck KGaA, Darmstadt, Germany). Radioactivity was measured in aliquots of ultrafiltrate and in prefiltration plasma samples, using a Wizard 2470 γ-counter (PerkinElmer LAS, Rodgau, Germany), and the free fraction in the plasma (fp) calculated from the concentration ratio.

plasma protein [2] = assay: Plasma protein binding in vitro (ultrafiltration); type: in vitro ADME, piglet; settings: pig plasma, 20 min at 37 °C
Protocol: as §1

MCTs = assay: Ex vivo biodistribution in mice; parameters: species or system mouse; settings: for SUV adipose tissue / SUV adrenal gland / SUV bladder / SUV blood / SUV brain / SUV caecum / SUV femur / SUV gall bladder / SUV heart / SUV kidney / SUV large intestine / SUV liver / SUV lung / SUV ovar / SUV pancreas / SUV plasma / SUV small intestine / SUV spleen / SUV stomach / SUV urine: ex vivo, control
Protocol: Adult mice (28 to 39 g bodyweight) under isoflurane anesthesia were pre-treated by i.v. injection of saline as control (n = 3 for each time point) or 25 mg/kg α-CCA-Na (n = 3 for each time point) ten min before i.v. injection of [^18F]FACH (0.53 ± 0.06 MBq, 0.14 to 0.29 pmol/g bodyweight). The animals were euthanized by anesthesia overdose and cervical dislocation at five, 15 and 30 min after i.v. [^18F]FACH administration, and the radioactivity concentrations in harvested tissues were measured by a gamma counter (PerkinElmer), decay-corrected and normalized to the administered dose and tissue weight, and expressed as SUV in their harvested tissues. The red blood cell to plasma ratio was calculated as described by Bower et al.

free plasma fraction (fp) (plasma protein [1]): 0.07
free plasma fraction (fp) (plasma protein [2]): 0.03
red blood cell to plasma ratio (MCTs; biodistribution studies): < 0.1
SUV adipose tissue (MCTs; 5 min p.i.): 0.12
SUV adrenal gland (MCTs; 5 min p.i.): 0.80
SUV bladder (MCTs; 5 min p.i.): 0.17
SUV blood (MCTs; 5 min p.i.): 1.85 ± 0.29 and 1.85
SUV brain (MCTs; 5 min p.i.): 0.08
SUV caecum (MCTs; 5 min p.i.): 0.18
SUV femur (MCTs; 5 min p.i.): 0.17
SUV gall bladder (MCTs; 5 min p.i.): 4.61
SUV heart (MCTs; 5 min p.i.): 0.74
SUV kidney (MCTs; 5 min p.i.): 7.97
SUV large intestine (MCTs; 5 min p.i.): 0.24
SUV liver (MCTs; 5 min p.i.): 9.65
SUV lung (MCTs; 5 min p.i.): 0.89 ± 0.12 and 0.89
SUV ovar (MCTs; 5 min p.i.): 0.38
SUV pancreas (MCTs; 5 min p.i.): 0.51
SUV plasma (MCTs; 5 min p.i.): 3.77 ± 0.57 and 3.77
SUV small intestine (MCTs; 5 min p.i.): 0.56
SUV spleen (MCTs; 5 min p.i.): 0.37
SUV stomach (MCTs; 5 min p.i.): 0.16
SUV urine (MCTs; 5 min p.i.): 0.82
SUV adipose tissue (MCTs; 15 min p.i.): 0.18
SUV adrenal gland (MCTs; 15 min p.i.): 0.94
SUV bladder (MCTs; 15 min p.i.): 0.35
SUV blood (MCTs; 15 min p.i.): 0.91
SUV brain (MCTs; 15 min p.i.): 0.04
SUV caecum (MCTs; 15 min p.i.): 0.15
SUV femur (MCTs; 15 min p.i.): 0.12
SUV gall bladder (MCTs; 15 min p.i.): 5.36
SUV heart (MCTs; 15 min p.i.): 0.53
SUV kidney (MCTs; 15 min p.i.): 12.81
SUV large intestine (MCTs; 15 min p.i.): 0.19
SUV liver (MCTs; 15 min p.i.): 10.65
SUV lung (MCTs; 15 min p.i.): 0.59
SUV ovar (MCTs; 15 min p.i.): 0.33
SUV pancreas (MCTs; 15 min p.i.): 0.44
SUV plasma (MCTs; 15 min p.i.): 1.76
SUV small intestine (MCTs; 15 min p.i.): 0.66
SUV spleen (MCTs; 15 min p.i.): 0.21
SUV stomach (MCTs; 15 min p.i.): 0.13
SUV urine (MCTs; 15 min p.i.): 4.32
SUV adipose tissue (MCTs; 30 min p.i.): 0.15
SUV adrenal gland (MCTs; 30 min p.i.): 0.51
SUV bladder (MCTs; 30 min p.i.): 0.31
SUV blood (MCTs; 30 min p.i.): 0.82 ± 0.05 and 0.82
SUV brain (MCTs; 30 min p.i.): 0.04
SUV caecum (MCTs; 30 min p.i.): 0.19
SUV femur (MCTs; 30 min p.i.): 0.15
SUV gall bladder (MCTs; 30 min p.i.): 10.96
SUV heart (MCTs; 30 min p.i.): 0.58
SUV kidney (MCTs; 30 min p.i.): 15.97 ± 1.07 and 15.97
SUV large intestine (MCTs; 30 min p.i.): 0.26
SUV liver (MCTs; 30 min p.i.): 8.48
SUV lung (MCTs; 30 min p.i.): 0.52 ± 0.02 and 0.52
SUV ovar (MCTs; 30 min p.i.): 0.32
SUV pancreas (MCTs; 30 min p.i.): 0.38
SUV plasma (MCTs; 30 min p.i.): 1.69 ± 0.17 and 1.69
SUV small intestine (MCTs; 30 min p.i.): 1.11
SUV spleen (MCTs; 30 min p.i.): 0.22
SUV stomach (MCTs; 30 min p.i.): 0.20
SUV urine (MCTs; 30 min p.i.): 4.57
Compound: CCCN(CCC[18F])c1ccc(/C=C(\C#N)C(=O)O)c(OC)c1 [[^18F]FACH, (E)-2-cyano-3-{4-[(3-[^18F]fluoropropyl)(propyl)amino]-2-methoxyphenyl}acrylic acid]
IC50 (MCT4): 6.5 nM
